The text below walks through data of publication PMC5812813 (Journal of the American Chemical Society, 2018).

The term Ki denotes the equilibrium dissociation constant of an inhibitor or competing ligand from its target. Usually IC50 stands for the concentration that gives 50% inhibition. A higher IC50 goes with weaker potency. The NOAEL is the highest tested level that showed no adverse finding.

In data set [1] the target is T1, aspartate aminotransferase (Asp-AT) (Sus scrofa, UniProt P00503). Particulars: cited from earlier work.
T1 sequence (P00503 2-413): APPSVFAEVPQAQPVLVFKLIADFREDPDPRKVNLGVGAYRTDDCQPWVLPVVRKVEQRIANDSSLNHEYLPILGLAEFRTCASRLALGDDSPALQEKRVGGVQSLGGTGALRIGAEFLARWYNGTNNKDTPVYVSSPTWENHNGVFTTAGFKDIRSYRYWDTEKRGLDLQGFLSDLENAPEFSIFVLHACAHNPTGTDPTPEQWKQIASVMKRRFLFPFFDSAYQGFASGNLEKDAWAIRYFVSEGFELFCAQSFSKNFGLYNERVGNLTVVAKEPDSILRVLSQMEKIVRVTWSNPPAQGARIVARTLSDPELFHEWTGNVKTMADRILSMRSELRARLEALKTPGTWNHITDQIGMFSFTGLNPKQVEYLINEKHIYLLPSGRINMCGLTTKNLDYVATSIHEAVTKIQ
Data set [2] relates to alanine aminotransferase (Ala-AT). The settings on record: cited from earlier work.
Data set [3] concerns the target T2, ornithine aminotransferase (OAT) (Homo sapiens, UniProt P04181).
T2 sequence (P04181 36-439 limits assumed): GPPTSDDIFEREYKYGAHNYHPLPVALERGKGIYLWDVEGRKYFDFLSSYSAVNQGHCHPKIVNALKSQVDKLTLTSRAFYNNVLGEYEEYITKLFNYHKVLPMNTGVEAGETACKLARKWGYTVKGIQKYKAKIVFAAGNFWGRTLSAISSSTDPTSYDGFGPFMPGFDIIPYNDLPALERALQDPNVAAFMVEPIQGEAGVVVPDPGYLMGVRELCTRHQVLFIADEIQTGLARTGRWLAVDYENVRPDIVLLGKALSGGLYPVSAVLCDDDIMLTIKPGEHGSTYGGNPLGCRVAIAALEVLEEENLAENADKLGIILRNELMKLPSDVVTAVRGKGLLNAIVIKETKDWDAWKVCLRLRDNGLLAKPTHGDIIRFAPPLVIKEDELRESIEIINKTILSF
The settings on record: cited from earlier work.

In data set [4] the target is T3, hERG channel (Homo sapiens, UniProt Q12809). Particulars: cited from earlier work.
T3 sequence (Q12809 whole entry): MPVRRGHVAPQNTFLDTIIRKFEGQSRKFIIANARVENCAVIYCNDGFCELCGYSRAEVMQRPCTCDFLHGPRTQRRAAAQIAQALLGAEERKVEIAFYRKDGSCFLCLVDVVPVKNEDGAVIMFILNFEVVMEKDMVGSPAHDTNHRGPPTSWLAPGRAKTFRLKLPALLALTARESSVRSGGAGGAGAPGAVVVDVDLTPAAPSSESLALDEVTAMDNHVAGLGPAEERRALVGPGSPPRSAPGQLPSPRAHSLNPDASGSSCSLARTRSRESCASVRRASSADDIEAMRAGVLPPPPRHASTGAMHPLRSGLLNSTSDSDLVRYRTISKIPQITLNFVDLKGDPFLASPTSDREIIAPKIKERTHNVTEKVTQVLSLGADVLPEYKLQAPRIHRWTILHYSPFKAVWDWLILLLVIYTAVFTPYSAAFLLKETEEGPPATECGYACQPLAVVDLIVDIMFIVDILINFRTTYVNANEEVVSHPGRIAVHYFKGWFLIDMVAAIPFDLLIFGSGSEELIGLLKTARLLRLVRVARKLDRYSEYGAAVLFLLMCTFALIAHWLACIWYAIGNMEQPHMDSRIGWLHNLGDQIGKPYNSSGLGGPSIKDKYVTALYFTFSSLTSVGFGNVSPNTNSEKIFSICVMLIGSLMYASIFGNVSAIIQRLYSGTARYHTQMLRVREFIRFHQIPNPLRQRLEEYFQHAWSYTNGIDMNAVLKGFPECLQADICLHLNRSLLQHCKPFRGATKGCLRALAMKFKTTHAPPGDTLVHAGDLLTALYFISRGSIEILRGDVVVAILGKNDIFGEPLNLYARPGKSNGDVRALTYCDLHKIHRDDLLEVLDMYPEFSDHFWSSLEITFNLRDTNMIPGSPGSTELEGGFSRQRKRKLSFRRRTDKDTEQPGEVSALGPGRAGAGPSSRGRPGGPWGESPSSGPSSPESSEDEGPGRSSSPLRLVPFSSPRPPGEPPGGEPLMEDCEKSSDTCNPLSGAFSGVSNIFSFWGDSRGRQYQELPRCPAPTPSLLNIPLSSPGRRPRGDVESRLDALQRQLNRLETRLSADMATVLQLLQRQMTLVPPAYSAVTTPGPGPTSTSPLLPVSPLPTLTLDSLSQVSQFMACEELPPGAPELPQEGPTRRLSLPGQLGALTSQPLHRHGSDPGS
For data set [5], the target named is T4, CYP1A (Homo sapiens, UniProt P05177).
T4 sequence (P05177 1-516): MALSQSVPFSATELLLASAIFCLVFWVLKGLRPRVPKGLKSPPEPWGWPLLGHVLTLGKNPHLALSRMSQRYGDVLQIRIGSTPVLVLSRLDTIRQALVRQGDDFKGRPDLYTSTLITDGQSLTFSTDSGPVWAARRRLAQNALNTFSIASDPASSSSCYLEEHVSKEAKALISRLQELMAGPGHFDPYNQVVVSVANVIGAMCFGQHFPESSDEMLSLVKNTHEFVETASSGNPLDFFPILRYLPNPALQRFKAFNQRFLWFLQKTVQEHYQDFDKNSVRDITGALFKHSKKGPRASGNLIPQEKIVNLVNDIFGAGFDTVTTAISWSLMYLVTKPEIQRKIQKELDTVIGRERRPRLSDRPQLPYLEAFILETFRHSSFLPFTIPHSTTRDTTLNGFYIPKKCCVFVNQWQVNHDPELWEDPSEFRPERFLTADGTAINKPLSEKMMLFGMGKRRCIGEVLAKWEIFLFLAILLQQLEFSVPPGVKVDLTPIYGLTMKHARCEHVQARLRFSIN
Particulars: cited from earlier work.

Data set [6] concerns the target T5, CYP2B6 (Homo sapiens, UniProt P20813).
T5 sequence (P20813 1-491): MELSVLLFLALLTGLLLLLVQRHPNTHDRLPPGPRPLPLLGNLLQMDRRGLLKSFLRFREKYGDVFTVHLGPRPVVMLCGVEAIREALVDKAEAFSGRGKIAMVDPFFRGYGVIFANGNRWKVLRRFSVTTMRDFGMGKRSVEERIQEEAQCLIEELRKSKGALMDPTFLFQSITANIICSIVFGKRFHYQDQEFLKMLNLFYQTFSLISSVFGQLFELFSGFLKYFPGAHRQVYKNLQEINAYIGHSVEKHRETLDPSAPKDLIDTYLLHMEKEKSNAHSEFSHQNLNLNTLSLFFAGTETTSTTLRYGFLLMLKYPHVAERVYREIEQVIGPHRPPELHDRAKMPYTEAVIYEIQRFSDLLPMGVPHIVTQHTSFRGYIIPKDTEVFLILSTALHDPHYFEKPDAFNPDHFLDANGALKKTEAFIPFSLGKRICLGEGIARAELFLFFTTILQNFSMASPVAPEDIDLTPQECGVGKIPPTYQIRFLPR
The settings on record: cited from earlier work.

Data set [7] has as its target T6, CYP2C8 (Homo sapiens, UniProt P10632).
T6 sequence (P10632 1-490): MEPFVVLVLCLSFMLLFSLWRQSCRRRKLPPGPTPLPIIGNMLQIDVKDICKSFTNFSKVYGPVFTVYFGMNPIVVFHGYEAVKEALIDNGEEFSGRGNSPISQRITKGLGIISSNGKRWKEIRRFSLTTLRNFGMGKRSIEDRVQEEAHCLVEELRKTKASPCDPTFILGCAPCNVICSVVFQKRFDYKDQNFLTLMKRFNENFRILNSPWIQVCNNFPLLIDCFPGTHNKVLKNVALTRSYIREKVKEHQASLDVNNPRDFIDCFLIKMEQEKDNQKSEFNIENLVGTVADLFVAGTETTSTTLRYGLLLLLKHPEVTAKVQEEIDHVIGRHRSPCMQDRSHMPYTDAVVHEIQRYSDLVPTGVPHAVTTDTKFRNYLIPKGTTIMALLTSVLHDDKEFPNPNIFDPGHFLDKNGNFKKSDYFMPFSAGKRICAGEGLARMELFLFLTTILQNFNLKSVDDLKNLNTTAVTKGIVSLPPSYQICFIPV
Particulars: cited from earlier work.

Data set [8] deals with T7, CYP2C9 (Homo sapiens, UniProt P11712). Particulars: cited from earlier work.
T7 sequence (P11712 whole entry): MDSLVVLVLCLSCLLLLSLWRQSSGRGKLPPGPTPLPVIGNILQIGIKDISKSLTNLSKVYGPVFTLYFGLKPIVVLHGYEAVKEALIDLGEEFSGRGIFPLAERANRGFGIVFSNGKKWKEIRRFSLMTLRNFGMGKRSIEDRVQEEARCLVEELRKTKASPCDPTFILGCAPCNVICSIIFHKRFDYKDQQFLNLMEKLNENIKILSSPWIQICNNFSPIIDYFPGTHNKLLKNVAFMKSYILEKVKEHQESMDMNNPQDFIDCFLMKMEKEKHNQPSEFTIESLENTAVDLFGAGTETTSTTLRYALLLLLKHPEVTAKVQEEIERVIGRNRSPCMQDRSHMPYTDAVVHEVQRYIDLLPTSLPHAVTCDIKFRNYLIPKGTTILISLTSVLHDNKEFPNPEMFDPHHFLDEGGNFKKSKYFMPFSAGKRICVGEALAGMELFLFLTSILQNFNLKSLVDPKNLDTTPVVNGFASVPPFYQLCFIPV
For data set [9], the target named is T8, CYP2C19 (Homo sapiens, UniProt P33261). The settings on record: cited from earlier work.
T8 sequence (P33261 whole entry): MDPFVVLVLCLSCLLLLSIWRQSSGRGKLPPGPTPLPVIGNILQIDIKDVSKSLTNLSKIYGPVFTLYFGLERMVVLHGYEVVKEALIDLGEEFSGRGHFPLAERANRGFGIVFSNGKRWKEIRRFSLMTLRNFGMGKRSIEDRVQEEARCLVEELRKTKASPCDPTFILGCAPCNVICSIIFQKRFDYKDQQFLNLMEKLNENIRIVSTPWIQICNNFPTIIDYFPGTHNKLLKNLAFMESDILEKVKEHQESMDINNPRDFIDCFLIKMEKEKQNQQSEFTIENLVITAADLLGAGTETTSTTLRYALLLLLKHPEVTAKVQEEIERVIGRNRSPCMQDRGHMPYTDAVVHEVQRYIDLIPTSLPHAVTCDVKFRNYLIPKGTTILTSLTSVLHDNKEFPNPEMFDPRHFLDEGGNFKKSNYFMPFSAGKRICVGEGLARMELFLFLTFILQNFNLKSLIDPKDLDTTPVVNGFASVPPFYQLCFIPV
Data set [10] addresses T9, CYP2D6 (Homo sapiens, UniProt P10635). Particulars: cited from earlier work.
The subject of data set [11] is CYP3A. The settings on record: cited from earlier work.
Data set [12] concerns hippocampus glucose metabolism. Particulars: previously tested in similar tests; cited from earlier work.
Data set [13] has as its system infantile spasms. Particulars: cited from earlier work.
The subject of data set [14] is cocaine- or nicotine-induced increases in synaptic dopamine (corpus striatum). Type of data set: in vivo, rat.
Data set [15] addresses T1, aspartate aminotransferase (Asp-AT). The data set is described as follows: Inhibition of aspartate aminotransferase. Type of data set: biochemical.
The test system of data set [16] is alanine aminotransferase (Ala-AT). In words: Inhibition of alanine aminotransferase. Type of data set: biochemical.
Data set [17] addresses T2, ornithine aminotransferase (OAT). In words: Time- and concentration-dependent inhibition of ornithine aminotransferase. It is filed as biochemical.
The target of data set [18] is T3, hERG channel. The data set is described as follows: Inhibition of the hERG channel. Type of data set: cell-based. Particulars: at 10 μM.
In data set [19] the target is T4, CYP1A. The data set is described as follows: CYP1A inhibition. Type of data set: in vitro ADME. The settings on record: 10 μM.
Data set [20] has as its target T5, CYP2B6. In words: CYP2B6 inhibition. The settings on record: 10 μM. It is filed as in vitro ADME.
In data set [21] the target is T6, CYP2C8. The data set is described as follows: CYP2C8 inhibition. Type of data set: in vitro ADME. Particulars: 10 μM.
The target in data set [22] is T7, CYP2C9. In words: CYP2C9 inhibition. It is filed as in vitro ADME. The settings on record: 10 μM.
Data set [23] addresses T8, CYP2C19. In words: CYP2C19 inhibition. The settings on record: 10 μM. It is filed as in vitro ADME.
For data set [24], the target named is T9, CYP2D6. In words: CYP2D6 inhibition. Type of data set: in vitro ADME. The settings on record: 10 μM.
Data set [25] has as its system CYP3A. In words: CYP3A inhibition. The settings on record: 10 μM. Type of data set: in vitro ADME, human.
Data set [26] can be described thus: Metabolic stability in human liver microsomes. It is filed as in vitro ADME. Particulars: 1 μM, 90 min assay time, 37 °, LC-MS/MS. In general terms: Liver microsomes are a subcellular fraction often used to study metabolism.
Data set [27] concerns 176 pharmacological targets. The data set is described as follows: Cerep SpectrumScreen. Particulars: 3 μM.
Data set [28] is described as follows: Ames test for mutagenicity. A general note: In the Ames test, an excess of revertant colonies over the control signals mutagenicity.
Data set [29] in a line: Irwin. Set-up: species or system mice. Particulars: mouse, in vivo, po.
Data set [30] relates to hippocampus glucose metabolism. In words: microPET 18FDG, cocaine-induced increases in glucose metabolism. Type of data set: in vivo, rat. The settings on record: 5 before cocaine, statistical parametric mapping, p < 0.00001.
Data set [31] has as its system cocaine addiction. Particulars: 9-week double-blind trial; cited from earlier work.
For data set [32] the following is noted: after long-term administration; cited from earlier work.
The mark [33] stands for this setting: 5 0.1 mg/kg prior to cocaine 10 mg/kg.
[34] abbreviates: 5 1.0 mg/kg prior to cocaine 10 mg/kg.

Each structure is given as a SMILES string. Read-outs that look alike come from different tables or passages of the source.

T9 sequence (P10635 whole entry): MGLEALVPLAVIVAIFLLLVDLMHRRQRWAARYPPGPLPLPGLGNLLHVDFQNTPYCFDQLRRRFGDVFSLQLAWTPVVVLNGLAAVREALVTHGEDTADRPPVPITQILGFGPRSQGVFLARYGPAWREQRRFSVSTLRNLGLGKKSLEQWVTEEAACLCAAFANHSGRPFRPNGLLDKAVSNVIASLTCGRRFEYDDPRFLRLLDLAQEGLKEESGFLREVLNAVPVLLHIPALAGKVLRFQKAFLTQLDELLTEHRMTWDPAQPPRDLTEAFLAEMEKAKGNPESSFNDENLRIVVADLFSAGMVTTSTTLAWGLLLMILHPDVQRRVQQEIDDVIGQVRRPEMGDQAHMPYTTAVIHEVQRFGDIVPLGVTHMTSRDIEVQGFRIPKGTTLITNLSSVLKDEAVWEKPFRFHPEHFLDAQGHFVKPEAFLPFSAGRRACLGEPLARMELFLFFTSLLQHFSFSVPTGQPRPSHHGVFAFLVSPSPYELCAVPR

Consider `N[C@H]1C[C@@H](C(=O)O)CC1=C(F)F` [CPP-115, (1S,3S)-3-amino-4-difluoromethylenyl-1-cyclopentanoic acid], for which the “inactivation or inhibition of off-target enzyme” value in [1] and in data set [2] was “not to inactivate or inhibit” throughout. In addition, the Ki in data set [3] is 116 µM. The “inhibition of the activity of the hERG channel” value in data set [4] is recorded as “does not inhibit”. The “CYP inhibition or induction” value in data set [5], in data set [6], in data set [7], in data set [8], in [9] and in data set [10] was “does not inhibit or induce” throughout. For the same compound, the “CYP inhibition or induction” value in data set [11] is listed as “does not inhibit or induce”. For the same compound, the “block of cocaine-induced hippocampal metabolism” value in [12] is “did not completely block”. The “doses suppressing spasms, lower than those used for vigabatrin” value in [13] is listed as “over 100 fold”.
On to `COC(=O)[C@H]1[C@@H](OC(=O)c2ccccc2)C[C@@H]2CC[C@H]1N2C` [Cocaine, cocaine, reference compound], for which, in [14] (cocaine 10 mg/kg alone), the “%= (Percent inhibition of cocaine-induced increase in synaptic dopamine)” value is reported as −36%, the ST-CB/CB is listed as 2.39 ± 0.21 and the “reduction of [11C]-raclopride binding” value amounted to 36%.
With `N[C@H]1C=C(C(=O)O)CC1=C(F)F` [Compound 5, (S)-3-amino-4-(difluoromethylenyl)cyclopent-1-ene-1-carboxylic acid], the time-dependent inhibition result in [15] and in [16] was “does not cause time-dependent inhibition” in each case. Moreover, the IC50 in data set [16] (reversible inhibition) was above 4000 µM. Further, the “more effective at inhibiting GABA-AT than OAT” value in [17] (GABA-AT versus OAT) is 44 times. Also, the “efficiency as an inactivator of OAT relative to CPP-115” value in data set [17] (ratio of kinact/KI) is recorded as 9.0 times. Besides, in data set [18], the “inhibition of the activity of the hERG channel” value is “does not inhibit”. Also, the “CYP inhibition or induction” value in data set [19], in data set [20], in data set [21], in data set [22], in data set [23] and in data set [24] was “does not inhibit or induce” in each case. Besides, in data set [25], the “CYP inhibition or induction” value is on record as “does not inhibit or induce”. In addition, in data set [26], the “metabolism in human liver microsomes” value was “No metabolism”. Further, the “activity at 176 pharmacological targets” value in data set [27] was “no significant activity”. The “Ames test for mutagenicity” value in [28] was “negative”. In data set [29], this compound yielded an NOAEL of 6 mg/kg. In addition, the “reduction of [11C]-raclopride binding” value in data set [14] (5 0.01 mg/kg 30 minutes prior to cocaine) amounted to 20%; in data set [14] (5 0.1 mg/kg prior to cocaine) it was 12%; in [14] (5 1.0 mg/kg prior to cocaine (comparable to control)), 5%. Further, the ST-CB/CB in [14] (5 0.01 mg/kg 30 minutes prior to cocaine 10 mg/kg) was 3.01 ± 0.44; in data set [14] (setting [33]) it was 3.31 ± 0.52; in data set [14] (setting [34]), 3.56 ± 2.11. In addition, the “%= (Percent inhibition of cocaine-induced increase in synaptic dopamine)” value in [14] (5 0.01 mg/kg prior to cocaine 10 mg/kg) was −20%; in data set [14] (setting [33]), −12%; in data set [14] (setting [34]), −5%. Also, the “change in [11C]-raclopride binding” value in data set [14] (5 1.0 mg/kg prior to cocaine) and in data set [14] (5 1.0 mg/kg prior to nicotine) was “no significant change” throughout. Also, in data set [30], the “cocaine-induced activation in the hippocampus (18FDG uptake)” value is “no activation in the hippocampus was detected”.
Take `C=CC(N)CCC(=O)O` (stereo not drawn) [vigabatrin]: the “block of cocaine-induced hippocampal metabolism” value in data set [12] is listed as “did not completely block”. Moreover, the patients achieving abstinence result in data set [31] is reported as “up to 28%”. Further, the “patients with permanent retinal damage” value in [32] was 25–40%.
